In patent US20080269231A1, “Phenazine Compounds and Use Thereof in Autoimmune and Inflammatory Disease” (JJ Pharma, Inc., priority 2007, published 2008):
“Also recorded” adds a separate entry of the source.

How the values were obtained:
[1] = system: Type II collagen-induced arthritis (CIA); assay: Collagen-induced arthritis (CIA) mouse model, clinical assessment; assay type: in vivo, DBA/1 LacJ mice; details: vs saline control mice; for number of involved (arthritic) paws: Formula III 40 mg/kg i.p. ×3/week or gavaged ×5/week, Enbrel 100 μg i.p. ×3/week, prednisolone 10 mg/kg gavaged ×5/week
Excerpt: Type II collagen-induced arthritis (CIA) in mice is an accepted experimental model of arthritis with a number of pathological, immunological and genetic features in common with rheumatoid arthritis. This disease is induced by immunization of susceptible strains of mice with type II collagen, the major component of joint cartilage. A progressive, inflammatory arthritis develops in the majority of immunized animals, which is characterized clinically by erythema and edema, with affected paw width increases of typically 100%. A clinical scoring index has been developed to assess disease progression to joint distortion and spondylitis. […] Immunological laboratory findings include high antibody levels to type II collagen and hypergammaglobulinemia.
(§1) This study was designed to evaluate the anti-inflammatory and anti-arthritic activity of compound of Formula III using the CIA model by observing changes in immune parameters due to treatment. The animals were administered oral corticosteroid, Enbrel, an injectable TNF inhibitor, and compound of Formula III using both oral and parenteral delivery. Seventy-five DBA/1 LacJ mice 8-10 weeks of age were obtained from Jackson Labs and quarantined in our facility for 10 days prior to experimentation. All mice weighed >16 grams at the start of the experiment. Mice were pre-bled by retro-orbital puncture, and injected with 100 μg Bovine type II collagen in Freund's complete adjuvant (FCA) intradermally at the base of the tail. Mice were monitored by daily examination for the onset of disease. Mice that developed CIA between 20 days post immunization and 42 days post immunization were assigned to one of five treatment groups on a rotational basis (to normalize onset date), and ten mice were assigned to each group. For administration, compound of Formula III was solubilized in sterile saline. To facilitate drugs delivered by oral administration, carboxymethylcellulose was added to a final concentration of 4% in all gavage solutions. Compounds were administered according to the following schedule: • Group 1. 100 μl sterile saline vehicle injected intraperitoneally (i.p.) ×3/week. • Group 2. 100 μl sterile saline containing compound of Formula III at 40 mg/kg injected i.p. ×3/week. • Group 3. 100 μl sterile saline containing 100 μg Enbrel injected i.p. ×3/week. • Group 4. 100 μl sterile saline containing compound of Formula III at 40 mg/kg gavaged ×5/week. • Group 5. 100 μl sterile saline containing prednisolone 10 mg/kg gavaged ×5/week.
Mice were weighed weekly, and overall health status noted. Arthritic animals were clinically assessed by visual inspection five times per week, and paw swelling quantified by caliper measurements made three times per week, until seven weeks after the initial onset of arthritis. All animals were assessed individually from the time of disease onset, and the appropriate findings were entered into clinical report forms.

[2] = system: anti-type II collagen antibody; assay type: in vivo, DBA/1 LacJ mice; details: after seven weeks of treatment, Prednisolone 10 mg/kg gavaged ×5/week, Formula III 40 mg/kg i.p. ×3/week; for terminal anti-CII antibody levels compared with control mice: p<0.01
Description: as §1
All mice were pre-bled prior to the start of the trial, subsequently at onset of arthritis and at the completion of the trial. Sera were separated and stored at −80° C. ELISA assays were performed to determine anti-type II collagen antibody levels and total immunoglobulin levels.
ELISA plates (Nunc-Immuno plates, Denmark) were coated with 100 μl of coating buffer (0.4M phosphate buffer ph7.6) containing 5 μg of type II collagen, at 4° C. overnight. Plates were washed 3 times with PBS containing 0.05% Tween 20 (Sigma, St. Louis, Mo.) and non specific binding was blocked by PBS containing 5% non fat milk overnight at 4° C. Mouse sera diluted to 1/100 in 5% milk/PBS was added to each well and incubated overnight at 4° C. […] The resulting optical density was measured at 405 nm by using a UV max spectrophotometer (Molecular Devices, CA). […] Antibody binding was expressed as OD405 units-blank.

total serum Ig = assay: Total serum immunoglobulin levels in CIA mice (ELISA); assay type: in vivo, DBA/1 LacJ mice; details: Prednisolone 10 mg/kg gavaged ×5/week; Formula III 40 mg/kg i.p. ×3/week
Description: This study was designed to evaluate the anti-inflammatory and anti-arthritic activity of compound of Formula III using the CIA model by observing changes in immune parameters due to treatment. The animals were administered oral corticosteroid, Enbrel, an injectable TNF inhibitor, and compound of Formula III using both oral and parenteral delivery. Seventy-five DBA/1 LacJ mice 8-10 weeks of age were obtained from Jackson Labs and quarantined in our facility for 10 days prior to experimentation. All mice weighed >16 grams at the start of the experiment. Mice were pre-bled by retro-orbital puncture, and injected with 100 μg Bovine type II collagen in Freund's complete adjuvant (FCA) intradermally at the base of the tail. Mice were monitored by daily examination for the onset of disease. Mice that developed CIA between 20 days post immunization and 42 days post immunization were assigned to one of five treatment groups on a rotational basis (to normalize onset date), and ten mice were assigned to each group. For administration, compound of Formula III was solubilized in sterile saline. […]
Serum Ig levels was assessed using an ELISA assay. […] The plate was read at 405 nm using a Photospectrometer (Molecular Devices), and the data analyzed using the SOFTmax analytical software package. […]

[3] = system: plasma lipoprotein cholesterol and triglyceride; assay: Antilipidemic activity in hamsters fed hypercholesterolemic diet; assay type: in vivo, Syrian Golden hamsters; details: day 8 of treatment
Excerpt: Eighty-five male Syrian Golden hamsters (F1B strain, BioBreeders, Fitchburg Mass.) approximately 8-10 weeks of age were acclimated to individual hanging polystyrene cages with bedding for 1 week and then fed a semipurified hypercholesterolemic diet (HCD) containing 25% casein, 20% hydrogenated coconut oil, 2% safflower oil, and 0.15% cholesterol by weight for 2 weeks prior to initiation of the experimental treatments (Table 1). Hamsters were then bled (Week 0) following an overnight fast (16 hr) to determine plasma concentrations of total cholesterol, HDL-C, nonHDL-C, and triglycerides and divided into 17 groups (n=5/group) with similar starting plasma HDL-C levels, and administered either compound of Formula II or vehicle once per day for 14 days.
Plasma total cholesterol, HCL-C, nonHDL-C, and triglycerides were then measured at day 8 (prior to gavage that day) and at day 15 (24 hr after last gavage) following and overnight fast (16 hr). Hamsters were maintained in accordance with the guidelines of the Animal Care Committee at the University of Massachusetts-Lowell Research Foundation and the guidelines prepared by the Committee on the Care and Use of Laboratory Animals of the Institute of Laboratory Animal Resources, National Research Council (DHEW publication no 85-23, revised 1985). Hamsters were housed in an environmentally controlled room with an alternating 12-h light/dark cycle and given ad libitum access to food and water except when food is withheld for the experimental protocols.
Blood was collected via the retro-orbital sinus into heparinized tubes from hamsters fasted for 16 h at days 0, 8, and 15. Plasma was harvested after centrifugation at 1500-×g at room temperature for 10 min and plasma total cholesterol and triglyceride concentrations were measured enzymatically. Plasma LDL cholesterol (combination of very low-density, intermediate, and low-density lipoprotein-cholesterol) was precipitated with phosphotungstate reagent and HDL cholesterol was measured in the supernatant. The concentration of LDL cholesterol was calculated as the difference between plasma TC and HDL cholesterol. The accuracy and precision of the procedures used for the measurements of plasma TC and HDL cholesterol were maintained by participation in the Lipid Standardization Program of the Centers for Disease Control and the National Heart, Blood and Lung Institute (Atlanta, Ga.). All reagents used were supplied by Sigma-Aldrich (St. Louis, Mo.). All assays were performed using a Cobas Mira Plus® (Cobas Mira Plus® is a registered trademark of Roche Diagnostic Systems, Inc.) clinical chemistry autoanalyzer using 10 μl of plasma for each sample (Roche Pharmaceuticals, Basel, Switzerland).

lymph node cells = assay: Lymph node cell mitogen and antigen proliferative responses (MTT) from treated CIA mice; assay type: in vivo, DBA/1 LacJ mice; details: mice treated 40 mg/kg i.p. ×3/week; p<0.05
Description: This study was designed to evaluate the anti-inflammatory and anti-arthritic activity of compound of Formula III using the CIA model by observing changes in immune parameters due to treatment. The animals were administered oral corticosteroid, Enbrel, an injectable TNF inhibitor, and compound of Formula III using both oral and parenteral delivery. Seventy-five DBA/1 LacJ mice 8-10 weeks of age were obtained from Jackson Labs and quarantined in our facility for 10 days prior to experimentation. All mice weighed >16 grams at the start of the experiment. […] Mice were monitored by daily examination for the onset of disease. […]
Spleen and lymph nodes were removed at sacrifice, and mitogen responses to Con A and LPS, and antigen proliferative responses to type II collagen were determined using standard techniques. […] After incubation at 37° C. overnight, the optical density at 590 nm was read using a microplate photospectrometer (Molecular Devices, CA). The mean and OD values, which provide a measure of cell proliferation, were recorded for each cell sample with respect to antigen stimulation. Antigen specific responses were expressed as (OD590 [Stimulated Culture]−OD590 [Spontaneous proliferation culture])/OD590 [Spontaneous proliferation culture].

[4] = gavaged ×5/week (Formula III 40 mg/kg; prednisolone 10 mg/kg)
[5] = injected i.p. ×3/week (Formula III 40 mg/kg; Enbrel 100 μg)

Molecule | number of involved (arthritic) paws [1] | arthritis score [1, 4] | arthritis score ([1]; gavaged ×5/week (Formula III 40 mg/kg; prednisolone 10 mg/kg), listed as prednisolone) | terminal anti-CII antibody levels compared with titers at disease onset [2] | terminal anti-CII antibody levels compared with control mice [2] | reduction of total serum Ig levels at the terminal bleed vs control mice (total serum Ig) | plasma HDL-C change compared to vehicle control ([3]; 0.9 mg/kg once per day) [%] | plasma nonHDL-C change compared to vehicle control ([3]; 0.9 mg/kg once per day) [%] | plasma total cholesterol change compared to vehicle control ([3]; 0.9 mg/kg once per day) [%] | plasma triglycerides change compared to vehicle control ([3]; 0.9 mg/kg once per day) [%] | plasma HDL-C change compared to vehicle control ([3]; 1.8 mg/kg once per day) [%] | plasma nonHDL-C change compared to vehicle control ([3]; 1.8 mg/kg once per day) [%] | plasma total cholesterol change compared to vehicle control ([3]; 1.8 mg/kg once per day) [%] | plasma triglycerides change compared to vehicle control ([3]; 1.8 mg/kg once per day) [%] | plasma HDL-C change compared to vehicle control ([3]; 3.6 mg/kg once per day) [%] | plasma nonHDL-C change compared to vehicle control ([3]; 3.6 mg/kg once per day) [%] | plasma total cholesterol change compared to vehicle control ([3]; 3.6 mg/kg once per day) [%] | plasma triglycerides change compared to vehicle control ([3]; 3.6 mg/kg once per day) [%] | lymph node cell response to LPS (lymph node cells) | arthritis score [1, 5]
C[C@]12C=CC(=O)C=C1CC[C@@H]1[C@@H]2[C@@H](O)C[C@@]2(C)[C@H]1CC[C@]2(O)C(=O)CO [Prednisolone, prednisolone, reference compound] | significantly lower number of arthritic paws | significant reduction | significantly reduced the arthritis score | minor decrease | significant reduction | not significantly different |  |  |  |  |  |  |  |  |  |  |  |  |  | 
COc1cccc2c1[n+]([O-])c1cccc(O)c1[n+]2[O-] [compound of Formula III] | did not significantly influence the number of involved paws | did not exert a statistically significant effect |  | maintenance of titers equivalent to the levels at onset | significant reduction | not significantly different | −2 | −36 | −27 | −37 | 7 | −24 | −17 | −14 | −4 | −26 | −21 | −20 | significant reduction | marked effect; also recorded: significant reduction
Enbrel | significantly lower number of arthritic paws |  |  |  |  |  |  |  |  |  |  |  |  |  |  |  |  |  |  | significantly reduced the arthritis score; also recorded: significant reduction
